Measured values published in US20260001928A1 (CORTERIA PHARMACEUTICALS, priority 2022, published 2026).
*1 amine or outer side, *2 acyl side, *3 side chain or, on linkers, in order; H or OH if unused. Where a SMILES comes first, the peptide text is derived from it. Side-chain parts run from the residue outwards. [ ]: non-standard residue; d: D form. The star is where a group is joined. C18 diacid = O=C(O)CCCCCCCCCCCCCCCCC(=O)*; C16 diacid = O=C(O)CCCCCCCCCCCCCCC(=O)*; γGlu = O=C(O)[C@H](CCC(=O)[*:2])N[*:1]; NMeI = CC[C@H](C)[C@H](NC)C(=O)O; αMeL = CC(C)C[C@](C)(N)C(=O)O; Pentanoyl = CCCCC(=O)*; Aib = CC(C)(N)C(=O)O; Propionyl = CCC(=O)*; Butyryl = CCCC(=O)*

Assays:
CFR1R receptor = biological target: T1, CFR1R receptor (Homo sapiens, UniProt P34998); assay: Activity at anti-target CFR1R receptor, cAMP assay in CRF1R-overexpression CHO-K1 cells; assay type: cell-based; conditions: 100% = Sauvagine at 100 nM; for EC50: cAMP
T1 construct: host or cells: CHO-K1 (clone 2)
T1 sequence (P34998 24-415): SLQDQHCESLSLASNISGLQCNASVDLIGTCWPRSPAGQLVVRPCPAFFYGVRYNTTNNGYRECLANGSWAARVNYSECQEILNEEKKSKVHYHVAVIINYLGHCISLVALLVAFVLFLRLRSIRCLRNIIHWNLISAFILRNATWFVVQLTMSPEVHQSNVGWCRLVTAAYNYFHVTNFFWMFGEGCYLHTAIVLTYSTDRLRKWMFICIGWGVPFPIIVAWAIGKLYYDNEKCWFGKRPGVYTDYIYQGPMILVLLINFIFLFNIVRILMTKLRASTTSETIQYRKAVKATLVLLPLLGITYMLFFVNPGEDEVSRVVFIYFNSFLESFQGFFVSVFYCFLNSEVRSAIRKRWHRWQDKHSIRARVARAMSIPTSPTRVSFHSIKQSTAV
In short: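 Signal is normalised to 100 nM Sauvagine, taken as 100% activation, in clone 2 cells plated at a final 4000 cells/well from frozen stocks.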

human CRF2a receptor = biological target: T2, human CRF2a receptor (Homo sapiens, UniProt Q13324); assay: Activity at human CRF2a receptor, cAMP functional assay in TeloHEAC cells; assay type: cell-based; conditions: TeloHEAC cells stably expressing human CRF2a receptor, relative to urocortin 2 (100 nM = 100%)
T2 construct: expressed in transfected cells; host or cells: TeloHEAC cells
T2 sequence (Q13324 1-411): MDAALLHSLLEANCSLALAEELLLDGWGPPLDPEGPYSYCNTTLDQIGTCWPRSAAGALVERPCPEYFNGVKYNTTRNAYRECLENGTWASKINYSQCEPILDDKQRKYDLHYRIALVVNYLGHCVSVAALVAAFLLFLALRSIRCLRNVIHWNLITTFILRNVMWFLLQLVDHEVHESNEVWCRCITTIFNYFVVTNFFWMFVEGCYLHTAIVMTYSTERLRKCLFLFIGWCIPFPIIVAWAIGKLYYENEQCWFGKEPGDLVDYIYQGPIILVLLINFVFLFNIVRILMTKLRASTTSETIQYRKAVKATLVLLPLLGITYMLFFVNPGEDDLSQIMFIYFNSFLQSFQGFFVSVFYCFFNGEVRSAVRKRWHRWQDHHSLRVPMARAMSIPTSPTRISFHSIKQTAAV
In short: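 TeloHEAC cells stably expressing human CRF2a (10000 cells/well, suspended in HBSS/20 mM HEPES with 2 mM IBMX) were exposed to compounds for 30 min at 37 °C. cAMP was read as the 665/620 nm fluorescence ratio after 1 h at room temperature. EC50 was derived relative to 100 nM urocortin 2, set as 100%.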

Emax (% I) (CFR1R receptor)	EC50 (CFR1R receptor) [pM]	EC50 (human CRF2a receptor) [pM]	Structure (SMILES)
37	> 250000	40	CC[C@H](C)[C@H](NC)C(=O)N[C@H](C(=O)N[C@@H](CC(C)C)C(=O)N[C@@H](CO)C(=O)N[C@@H](CC(C)C)C(=O)N[C@@H](CC(=O)O)C(=O)N[C@@H](C(=O)N1CCC[C@H]1C(=O)N[C@H](C(=O)N[C@@H](CCCCN)C(=O)N[C@@H](CC(C)C)C(=O)N[C@@H](CCCCNC(=O)CC[C@H](NC(=O)CCCCCCCCCCCCCCCCC(=O)O)C(=O)O)C(=O)N[C@@H](CCC(N)=O)C(=O)N[C@H](C(=O)N[C@@H](CC(C)C)C(=O)N[C@@H](CC(C)C)C(=O)N[C@@H](CCCCN)C(=O)N[C@@H](CCC(N)=O)C(=O)N[C@@H](CCC(=O)O)C(=O)N[C@@H](CCCNC(=N)N)C(=O)N[C@@H](CCC(N)=O)C(=O)N[C@@H](CCCCN)C(=O)N[C@@H](CCCCN)C(=O)N[C@@H](CCC(N)=O)C(=O)N[C@@H](CCCNC(=N)N)C(=O)N[C@@H](CCC(=O)O)C(=O)N[C@@H](CCC(N)=O)C(=O)N[C@@H](C)C(=O)N[C@@H](CCC(=O)O)C(=O)N[C@@H](CCCCN)C(=O)N[C@@H](CC(N)=O)C(=O)N[C@@H](C)C(=O)N[C@@H](CCC(N)=O)C(=O)N[C@H](C(=O)N[C@@H](CC(C)C)C(=O)N[C@@H](CCC(=O)O)C(=O)N[C@@H](CCC(N)=O)C(=O)N[C@H](C(N)=O)C(C)C)[C@@H](C)CC)[C@@H](C)CC)[C@@H](C)CC)C(C)C)C(C)C [compound 24] (H-[NMeI]VLSLD[dV]PIKLK([γGlu-C18 diacid])QILLKQERQKKQREQAEKNAQILEQV-NH2)
13	> 250000	230	CCC(=O)N[C@H](C(=O)N[C@@H](CC(C)C)C(=O)N[C@@H](CO)C(=O)N[C@@H](CC(C)C)C(=O)N[C@@H](CC(=O)O)C(=O)N[C@@H](C(=O)N1CCC[C@H]1C(=O)N[C@H](C(=O)N[C@@H](CCCCN)C(=O)N[C@@H](CC(C)C)C(=O)N[C@@H](CCCCNC(=O)CC[C@H](NC(=O)CCCCCCCCCCCCCCC(=O)O)C(=O)O)C(=O)N[C@@H](CCCCN)C(=O)N[C@H](C(=O)N[C@@H](CC(C)C)C(=O)N[C@@H](CC(C)C)C(=O)N[C@@H](CCC(=O)O)C(=O)N[C@@H](CCC(N)=O)C(=O)N[C@@H](CCC(=O)O)C(=O)N[C@@H](CCCCN)C(=O)N[C@@H](CCC(N)=O)C(=O)N[C@@H](CCCCN)C(=O)N[C@@H](CCCCN)C(=O)N[C@@H](CCC(N)=O)C(=O)N[C@@H](CCCNC(=N)N)C(=O)N[C@@H](CCC(=O)O)C(=O)N[C@@H](CCC(N)=O)C(=O)N[C@@H](C)C(=O)N[C@@H](CCC(=O)O)C(=O)N[C@H](C(=O)N[C@@H](CC(N)=O)C(=O)N[C@@H](CCCCN)C(=O)N[C@@H](CCC(N)=O)C(=O)N[C@H](C(=O)N[C@@H](CC(C)C)C(=O)N[C@@H](C)C(=O)N[C@@H](CCC(N)=O)C(=O)N[C@H](C(N)=O)C(C)C)[C@@H](C)CC)[C@@H](C)O)[C@@H](C)CC)[C@@H](C)CC)C(C)C)C(C)C [compound 35] (Propionyl-VLSLD[dV]PIKLK([γGlu-C16 diacid])KILLEQEKQKKQREQAETNKQILAQV-NH2)
22	> 250000	140	CCCC(=O)N[C@H](C(=O)N[C@@H](CC(C)C)C(=O)N[C@@H](CO)C(=O)N[C@@H](CC(C)C)C(=O)N[C@@H](CC(=O)O)C(=O)N[C@@H](C(=O)N1CCC[C@H]1C(=O)N[C@H](C(=O)N[C@@H](CCCCN)C(=O)N[C@@H](CC(C)C)C(=O)N[C@@H](CCCCNC(=O)CC[C@H](NC(=O)CCCCCCCCCCCCCCC(=O)O)C(=O)O)C(=O)N[C@@H](CCCCN)C(=O)N[C@H](C(=O)N[C@@H](CC(C)C)C(=O)N[C@@H](CC(C)C)C(=O)N[C@@H](CCC(=O)O)C(=O)N[C@@H](CCC(N)=O)C(=O)N[C@@H](CCC(=O)O)C(=O)N[C@@H](CCCCN)C(=O)N[C@@H](CCC(N)=O)C(=O)N[C@@H](CCCCN)C(=O)N[C@@H](CCCCN)C(=O)N[C@@H](CCC(N)=O)C(=O)N[C@@H](CCCNC(=N)N)C(=O)N[C@@H](CCC(=O)O)C(=O)N[C@@H](CCC(N)=O)C(=O)N[C@@H](C)C(=O)N[C@@H](CCC(=O)O)C(=O)N[C@H](C(=O)N[C@@H](CC(N)=O)C(=O)N[C@@H](CCCCN)C(=O)N[C@@H](CCC(N)=O)C(=O)N[C@H](C(=O)N[C@@H](CC(C)C)C(=O)N[C@@H](C)C(=O)N[C@@H](CCC(N)=O)C(=O)N[C@H](C(N)=O)C(C)C)[C@@H](C)CC)[C@@H](C)O)[C@@H](C)CC)[C@@H](C)CC)C(C)C)C(C)C [compound 36] (Butyryl-VLSLD[dV]PIKLK([γGlu-C16 diacid])KILLEQEKQKKQREQAETNKQILAQV-NH2)
22	> 250000	130	CCCCC(=O)N[C@H](C(=O)N[C@@H](CC(C)C)C(=O)N[C@@H](CO)C(=O)N[C@@H](CC(C)C)C(=O)N[C@@H](CC(=O)O)C(=O)N[C@@H](C(=O)N1CCC[C@H]1C(=O)N[C@H](C(=O)N[C@@H](CCCCN)C(=O)N[C@@H](CC(C)C)C(=O)N[C@@H](CCCCNC(=O)CC[C@H](NC(=O)CCCCCCCCCCCCCCC(=O)O)C(=O)O)C(=O)N[C@@H](CCCCN)C(=O)N[C@H](C(=O)N[C@@H](CC(C)C)C(=O)N[C@@H](CC(C)C)C(=O)N[C@@H](CCC(=O)O)C(=O)N[C@@H](CCC(N)=O)C(=O)N[C@@H](CCC(=O)O)C(=O)N[C@@H](CCCCN)C(=O)N[C@@H](CCC(N)=O)C(=O)N[C@@H](CCCCN)C(=O)N[C@@H](CCCCN)C(=O)N[C@@H](CCC(N)=O)C(=O)N[C@@H](CCCNC(=N)N)C(=O)N[C@@H](CCC(=O)O)C(=O)N[C@@H](CCC(N)=O)C(=O)N[C@@H](C)C(=O)N[C@@H](CCC(=O)O)C(=O)N[C@H](C(=O)N[C@@H](CC(N)=O)C(=O)N[C@@H](CCCCN)C(=O)N[C@@H](CCC(N)=O)C(=O)N[C@H](C(=O)N[C@@H](CC(C)C)C(=O)N[C@@H](C)C(=O)N[C@@H](CCC(N)=O)C(=O)N[C@H](C(N)=O)C(C)C)[C@@H](C)CC)[C@@H](C)O)[C@@H](C)CC)[C@@H](C)CC)C(C)C)C(C)C [compound 37] (Pentanoyl-VLSLD[dV]PIKLK([γGlu-C16 diacid])KILLEQEKQKKQREQAETNKQILAQV-NH2)
6	> 250000	490	CC[C@H](C)[C@H](N)C(=O)N[C@H](C(=O)N[C@@H](CC(C)C)C(=O)N[C@@H](CO)C(=O)N[C@@H](CC(C)C)C(=O)N[C@@H](CC(=O)O)C(=O)N[C@H](C(=O)N1CCC[C@H]1C(=O)N[C@H](C(=O)N[C@@H](CCCCN)C(=O)N[C@@](C)(CC(C)C)C(=O)N[C@@H](CCCCNC(=O)CC[C@H](NC(=O)CCCCCCCCCCCCCCC(=O)O)C(=O)O)C(=O)N[C@@H](CCCCN)C(=O)N[C@H](C(=O)N[C@@H](CC(C)C)C(=O)N[C@@H](CC(C)C)C(=O)N[C@@H](CCC(=O)O)C(=O)N[C@@H](CCC(N)=O)C(=O)N[C@@H](CCC(=O)O)C(=O)N[C@@H](CCCCN)C(=O)N[C@@H](CCC(N)=O)C(=O)N[C@@H](CCCCN)C(=O)N[C@@H](CCCCN)C(=O)N[C@@H](CCC(N)=O)C(=O)N[C@@H](CCCNC(=N)N)C(=O)N[C@@H](CCC(=O)O)C(=O)N[C@@H](CCC(N)=O)C(=O)N[C@@H](C)C(=O)N[C@@H](CCC(=O)O)C(=O)N[C@H](C(=O)N[C@@H](CC(N)=O)C(=O)NC(C)(C)C(=O)N[C@@H](CCC(N)=O)C(=O)N[C@H](C(=O)N[C@@H](CC(C)C)C(=O)N[C@@H](C)C(=O)N[C@@H](CCC(N)=O)C(=O)N[C@H](C(N)=O)C(C)C)[C@@H](C)CC)[C@@H](C)O)[C@@H](C)CC)[C@@H](C)CC)C(C)C)C(C)C [compound 38] (H-IVLSLDVPIK[αMeL]K([γGlu-C16 diacid])KILLEQEKQKKQREQAETN[Aib]QILAQV-NH2)
